In experiment [1] the test system is murine bone marrow progenitor cells. Briefly: CFU-GEMM colonies from murine bone marrow cells, differential counts. The class given is cell-based. The protocol:
Proliferation of megakaryocytes in multipotential colonies (CFU-GEMM) from murine bone marrow cells: Primary bone marrow cells (1×10^5 per ml) from 8-12 week-old C3H/HeJ […], 95% air, at 37° C. The medium, appropriate for the growth of multipotential colonies (CFU-GEMM), contained 1% BSA (Sigma), 10^−4 M thioglycerol (Sigma), 2.8×10^−4 M human transferrin (TF, Biological industries, Israel), 10% WEHI-CM as a source of IL-3 and 2 units per ml erythropoietin (rhEPO, R & D Systems, Minneapolis). […] They were picked with a micropipette, cytocentrifuged and stained with May-Grunwald-Giemsa for differential counts. At least 700 cells were counted for each preparation.
Proliferation of Dendritic cells in CFU-GEMM: Multipotent (CFU-GEMM) colonies grown from primary bone marrow cells as described for the assay of megakaryocyte proliferation above were collected, stained and counted for dendritic cells. At least 700 cells were counted for each preparation.
Proliferation of Plasma cells in CFU-GEMM: Multipotent (CFU-GEMM) colonies grown from primary bone marrow cells as described for the assay of megakaryocyte proliferation above were collected, stained and counted for plasma cells. At least 700 cells were counted for each preparation.
Proliferation of Macrophage Cells in CFU-GEMM: Multipotent (CFU-GEMM) colonies grown from primary bone marrow cells as described for the assay of megakaryocyte proliferation above were collected, stained and counted for macrophage cells. At least 700 cells were counted for each preparation.
Proliferation of Red Blood Cells in CFU-GEMM: Multipotent (CFU-GEMM) colonies grown from primary bone marrow cells as described for the assay of megakaryocyte proliferation above were collected, stained and counted for red blood cells. At least 700 cells were counted for each preparation.
Proliferation of Polymorphonuclear Cells (PMN) in CFU-GEMM: Multipotent (CFU-GEMM) colonies grown from primary bone marrow cells as described for the assay of megakaryocyte proliferation above were collected, stained and counted for polymorphonuclear cells. […]

Experiment [2] shares this test system. Briefly: CFU-GM colony formation with IL-3 and G-CSF, murine bone marrow. It is filed as cell-based. The protocol:
Cells were scored in the macroscopic colonies grown from murine bone marrow cells prepared similarly to the CFU-GEMM colonies previously described. Cells were incubated with hematopoietic factors cytokine (IL-3) and colony stimulating factor (G-CSF), and 25 μg or more of synthetic peptides derived from casein (J), representing amino acids 1-22 of α-S1 casein, or 30-4, representing amino acids 1-6 of α-S1 casein, for 14 days, individually or in combination. The stimulation of colony formation (CFU) is expressed as the number of myeloid colonies in 10^5 plated MNCs.
Synthetic peptides derived from αS1-casein stimulate Granulopoietic (GM) cell proliferation in CFU-GM: As mentioned hereinabove, formation and expansion of CFU-GM (Granulocyte and Macrophage) colonies, and CFU-GEMM (Granulocyte, Erythroid, Macrophage and Megakaryocyte) colonies constitute one of the early events in the differentiation of hematopoietic progenitor cells in the bone marrow.

The subject of experiment [3] is Non-Obese Diabetic (NOD) mice. Briefly: Glucosuria in Non-Obese Diabetic (NOD) mice. To be noted: for Healthy/Total (sugar not detected in urine): female NOD mice, 100 μg synthetic peptide once weekly for 5 weeks, evaluated after 25 weeks; for Urine Sugar: individual healthy NOD mice, after 25 weeks. The class given is in vivo. The protocol: Juvenile (Type I, IDDM) diabetes in Non-Obese Diabetic (NOD) mice:
Peptides derived from natural casein: NOD mice are a commonly used model for research of autoimmune disease and human Juvenile Diabetes. Six week old female NOD mice received either one or two injections per week of 100 μg of peptides derived from natural casein, for a total of 5 or 10 treatments. Control mice received no treatment. The severity of disease was determined according to glucosuria, which was measured using Combi test sticks [Gross, D. J. et al (1994), Diabetology, 37:1195]. Results were expressed as the percent of glucosuria-free mice in each sample over a 365-day period.
Synthetic peptides derived from casein: In another experiment, 6 week old female NOD mice received one injection per week of 100 μg of Synthetic peptides derived from casein for a total of 5 treatments. Control mice received no treatment. Results were expressed as the number of healthy mice in the various treated groups.

Experiment [4] concerns irradiated, bone marrow transplanted mice. Briefly: Leukocyte and platelet reconstitution in bone marrow transplant recipient mice. It is filed as in vivo. Conditions: for enhancement of platelet counts over control mice: 3×10^6 cells, 10 days post-transplantation. The protocol:
Leukocyte and platelet reconstitution in bone marrow transplant recipient Mice: BALB/c mice were sub-lethally irradiated at a source to skin distance of 70 cm, dosage of 50 cGy per minute, for a total of 600 cGy. The irradiated mice were […] casein, synthetic peptides derived from casein (13-26 amino acids, see Table 3 above), or human serum albumin (controls), following a double-blinded protocol. Leukocyte reconstitution was determined according to cell count in peripheral blood collected at indicated intervals from 6 to 12 days post treatment. Platelet reconstitution was determined by cell count in blood collected from the retro orbital plexus, into EDTA-containing vials, at indicated intervals from day 6 to day 15 post treatment. […]
In a third series of experiments, the mice were irradiated (800 cGy), reconstituted and injected intraperitoneally with 1.0 mg synthetic peptides derived from casein (peptides 3a and 4P, representing the first 6 and 12 amino acids of the N terminus of αS1 casein, respectively—see Table 3 above) daily, on days 4, 5, 6 and 7 post-transplantation. Platelet reconstitution was assayed at 10 and 12 days post-transplantation.
In a fourth series of experiments, F1 mice were irradiated (750 cGy), reconstituted with syngeneic bone marrow, and injected intravenously 24 hours later with 1 mg per mouse of synthetic peptides derived from casein representing amino acids 1-22 of the N terminus of αS1 casein. In addition, 2 (two) groups of mice were treated each with a natural fraction of αS1 casein position 1-23, and a fraction of peptides derived from natural κ-casein, representing amino acid coordinates 106-169 of κ-casein (SEQ ID NO: 27). WBC counts were conducted on days 5, 7, 10 and 12 post-transplantation.

The subject of experiment [5] is human bone marrow progenitor cells. Briefly: CFU-GM colony formation with IL-3 and G-CSF, human bone marrow. Conditions: 100 μg/ml, 14 days. It is filed as cell-based. On the procedure:
Cells were scored in the macroscopic colonies grown from human bone marrow cells prepared similarly to the CFU-GEMM colonies previously described. Cells were incubated with hematopoietic factors cytokine (IL-3) and colony stimulating factor (G-CSF), and 25 μg or more of synthetic peptides derived from casein: peptide J, representing amino acids 1-22 of α-S1 casein. Exposure of the human bone marrow progenitor cells to peptides derived from casein was for 14 days. Stimulation of colony formation (CFU) is expressed as the number of myeloid colonies in 10^5 plated MNCs.
A similar effect of synthetic peptides derived from αS1 casein was observed on the proliferation of granulocytes and macrophages from human bone marrow progenitor cells. […] (FIG. 20). Thus, synthetic peptides derived from αS1 casein or combinations thereof are effective in augmenting the effect of granulopoitic factors such as G-CSF on bone marrow hematpoietic progenitor cell differentiation and expansion.

Another experiment concerns Sup-T1 cells. Briefly: Sup-T1 lymphocyte proliferation (cell counts). To be noted: data not shown. The class given is cell-based, human. The protocol: [^3H]-thymidine incorporation test: In order to test the effect of peptides derived from natural casein on T cell proliferation, several concentrations of peptides derived from natural casein (10 mg/ml stock in RPMI) were added to Sup-T1 cell cultures in 96 flat bottom microwell plate (5000 cells/well), as described for HIV-1 infection in Sup-T1 cells. Cells were counted and their viability was determined by trypan blue dye exclusion. They were pulsed with [^3H]-thymidine at each time point (3, 7, 10 and 14 days) for 18 hours (over night) and harvested on glass fiber filters for radioactivity reading (Incorporation of [^3H]-thymidine into cellular DNA is proportional to degree of cell proliferation).

Experiment [6] relates to Non-Obese Diabetic (NOD) mice. Nature of the experiment: Intraperitoneal Glucose Tolerance Test (IPGTT) in NOD mice. The class given is in vivo. To be noted: healthy NOD mice after 25 weeks. On the procedure: Intraperitoneal Glucose Tolerance Test (IPGTT): The glucose tolerance test is the definitive method for investigating glucose metabolism and diabetic tendencies in mammals. Twenty five (25) weeks after receiving Synthetic peptides derived from casein, response to a glucose load was assessed with an intraperitoneal glucose tolerance test. Glucose injection consisted of 1 g/kg body weight. Glycemic values were determined from blood drawn prior to test (0 minutes) and 60 minutes after loading.

Another experiment has as its system human bone marrow cells. Briefly: Colony assays in cultured human bone marrow cells (CFU-GM, MK, BFU-E, CFU-GEMM). The class given is cell-based. Conditions: 100 μg/ml synthetic peptide in the presence of EPO.

Procedure for human bone marrow cells: Proliferation of megakaryocyte- and erythroid forming cells from human bone marrow and cord blood cells: A sample of bone marrow from an apparently healthy human being was processed by density gradient separation using Histopaque-107 (Sigma Diagnostics) to obtain a purified population of mononuclear cells (MNC). Colony assays were performed in a plating medium containing final concentrations of 0.92% methyl cellulose (4000 centripase powder, Sigma Diagnostic), rehydrated in Iscoves modified Dulbecco's medium containing 36 mM sodium bicarbonate (Gibco), 30% fetal bovine serum (FBS) (Hyclone), 0.292 mg/ml glutamine, 100 units per ml penicillin and 0.01 mg per ml streptomycin (Biological Industries, Beit Haemek). Cord blood from normal births was collected and prepared as mentioned above.
Colony assay medium containing 10^5 MNC per ml was plated in triplicate wells within a 24 well tissue culture plate (Greiner), 0.33 ml per well. The cultures were incubated at 37° C. in 5% CO2, 95% air and 55% relative humidity with or without peptides derived from natural casein or synthetic peptides derived from casein, at the indicated concentrations. Plates were scored after 14 days for colonies containing more than 50 cells. […]

As for “RPKHPIKHQGLPQEVLNENLLR [J, synthetic peptide, amino acids 1-22 of α-S1 casein]”, the “effect on Early (E.MK) megakaryocyte formation (in words)” value in experiment [1] (25 μg or more, 14 days) is listed as “dramatic effect”. Further, the “increase in total megakaryocyte proliferation over controls” value in experiment [1] (synthetic peptide, FIG. 21) is listed as 57%. The “myelocyte formation with G-CSF and IL-3 (in words)” value in experiment [2] (25 μg or more, 14 days) is “synergistic increase”. In addition, the “increase in proliferation of granulocytes” value in experiment [2] (in the presence of G-CSF) amounted to 25%. Further, in experiment [3], the “Healthy/Total (sugar not detected in urine)” value is on record as 3/5 and the “Urine Sugar” value is recorded as “Negative”. The “peripheral white blood cell counts, day 10” value in experiment [4] (BALB/c, 600 cGy, 1 mg per mouse intraperitoneal, control 1.67) is recorded as 2.74 ×10^6 cells per ml. The “peripheral white blood cell counts, day 12” value in experiment [4] (BALB/c, 600 cGy, 1 mg per mouse intraperitoneal, control 4.64) is 5.20 ×10^6 cells per ml. The “white blood cell reconstitution (in words)” value in experiment [4] (F1 mice, 750 cGy, 1 mg i.v., days 5 and 7 post-reconstitution) is on record as “dramatic enhancement”. Moreover, in experiment [4] (F1 mice, 750 cGy, 1 mg i.v.), the “enhancement of platelet counts over control mice” value is given as above 25%. Further, in experiment [4] (F1 mice, 750 cGy, 1 mg i.v., listed as amino acids 1-22 of αS1-casein), the “enhancement of platelet counts over control mice” value worked out at 34%. In addition, the “enhancement of granulopoietic stimulating effect of G-CSF (myelocyte formation)” value in experiment [5] is above 50%.
For the sequence “RPKHPIKHQ [X, synthetic peptide, N-terminal 9 amino acids of αS1 casein]”, the “prevention of glucosuria (in words)” value in experiment [3] (100 μg once weekly for 5 weeks, 25 weeks) was “highly effective”. Further, in experiment [3], the “Healthy/Total (sugar not detected in urine)” value was 3/5 and the “Urine Sugar” value was “Negative”. Further, in the experiment with Sup-T1 cells (250 μg per ml), the “increase in lymphocyte cell number in infected cells” value was 80%. Besides, the “increase in lymphocyte cell number in infected cells” value in the experiment on Sup-T1 cells (500 μg per ml) is given as 33%. Also, in experiment [6], the “IPGT test outcome (in words)” value is on record as “no evidence of abnormal glucose metabolism”.
Consider “RPKHPIKHQGLPQEVLNE [F, synthetic peptide, N-terminal 18 amino acids of αS1 casein]”, for which, in the experiment on human bone marrow cells, the “proliferation of erythroid cell precursors (BFU-E colonies) vs EPO alone” value is “one and one-half”.
